Test results taken from the NIST ThermoML archive (doi:10.1021/je049576k).
Numbers after ± are expanded uncertainties.

Conditions: 101.33 kPa, Liquid

SMILES | mass density (298.15 K) | viscosity (298.15 K) | mass density (313.15 K) | viscosity (313.15 K)
C1COCO1 [1,3-dioxolane] | 1058.62 ± 0.58 kg/m3 | 0.5886 ± 0.0084 mPa·s | 1039.97 ± 0.56 kg/m3 | 0.4985 ± 0.0074 mPa·s
CCCCCC [hexane] | 655.07 ± 0.75 kg/m3 | 0.2951 ± 0.005 mPa·s | 641.27 ± 0.77 kg/m3 | 0.2552 ± 0.0045 mPa·s
CCC(C)O (configuration not stated) [butan-2-ol] | 802.2 ± 0.6 kg/m3 | 3.043 ± 0.037 mPa·s | 789.59 ± 0.61 kg/m3 | 1.791 ± 0.023 mPa·s
